Results published in PMC7501296, “Rapid and direct control of target protein levels with VHL-recruiting dTAG molecules” (Nature Communications, 2020).
Values joined by “and” are separate entries in the source; they are usually repeats but may differ in a detail not shown here. Identical values can stand only once.

Tests used:
Format in all cases: cell-based
[1] = test system: PATU-8902 FKBP12^F36V-KRAS^G12V; KRAS^-/- clone; assay: Antiproliferation, PATU-8902 FKBP12F36V-KRASG12V; KRAS-/- clone, 3D-spheroid (CellTiter-Glo); conditions: FKBP12F36V-KRASG12V, KRAS-/-, 3D-spheroid, replicate values
Experimental: (§1) Cell viability was assayed in 2D-adherent or ultra-low adherent 3D-spheroids using CellTiter-Glo (Promega)[6],[15]. Luminescence was measured on an Envision 2104 plate reader (PerkinElmer) and Fluostar Omega Reader (BMG Labtech) and data was analyzed using GraphPad PRISM v8. Synergy assessments were performed using CellTiter-Glo (Promega) with the following modifications to the protocol described in the ref. [34]. In brief, EWS502 cells were plated at 1000 cells per well in 50 µL of appropriate media in 384-well white culture plates (Corning) allowed to adhere overnight, and 100 nL of compounds were added using a Janus Workstation pin tool (PerkinElmer) for 72 h. Cell viability was measured by addition of 10 µL of CellTiter-glo (Promega), followed by incubation for 15 minutes at room temperature. Luminescence was measured on an Envision 2104 plate reader (PerkinElmer) and data was analyzed using GraphPad PRISM v8.

[2] = test system: PATU-8902 LACZ-FKBP12^F36V clone; assay: Antiproliferation, PATU-8902 LACZ-FKBP12F36V clone, 2D-monolayer (CellTiter-Glo)
Experimental: as §1

[3] = molecular target: T1, FKBP12^WT-Nluc (Homo sapiens, UniProt P62942); assay: FKBP12WT-Nluc dual luciferase assay (293FT); conditions: 293FT FKBP12WT-Nluc, 24 h
T1 construct: expressed in transfected cells; host or cells: 293FT
T1 sequence (P62942 2-108 limits assumed): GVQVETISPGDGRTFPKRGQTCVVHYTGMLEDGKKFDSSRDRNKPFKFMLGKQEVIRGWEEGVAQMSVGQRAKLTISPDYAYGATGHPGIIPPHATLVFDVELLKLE
Experimental: (§2) Dual luciferase assays were performed using 293FT FKBP12^WT-Nluc and FKBP12^F36V-Nluc cells. In brief, cells were plated at 2000 cells per well in 20 µL of appropriate media in 384-well white culture plates (Corning), allowed to adhere overnight, and 100 nL of compounds were added using a Janus Workstation pin tool (PerkinElmer) for 24 h at 37 °C. To evaluate Fluc signal, plates were brought to room temperature, 20 µL of Dual-Glo Reagent (Promega) was added for 10 min and luminescence was measured on an Envision 2104 plate reader (PerkinElmer). Subsequently, 20 µL of Dual-Glo Stop & Glo Reagent (Promega) was added for 10 min and luminescence was again measured to capture Nluc signal. DMSO-normalized ratios of Nluc/Fluc signal was analyzed and plotted using GraphPad PRISM v8[6].

[4] = molecular target: T2, FKBP12^F36V-Nluc (Homo sapiens, UniProt P62942, F37V); assay: FKBP12F36V-Nluc dual luciferase assay (293FT); conditions: 293FT FKBP12F36V-Nluc, 24 h
T2 construct: expressed in transfected cells; host or cells: 293FT
T2 sequence (P62942 2-108 F37V limits assumed): as the sequence (P62942 2-108 limits assumed) above, with F36V counted along it
Experimental: as §2

[5] = test system: PATU-8902 LACZ-FKBP12^F36V clone; assay: Antiproliferation, PATU-8902 LACZ-FKBP12F36V clone, 3D-spheroid (CellTiter-Glo)
Experimental: as §1

[6] = test system: PATU-8902 FKBP12^F36V-KRAS^G12V; KRAS^-/- clone; assay: Antiproliferation, PATU-8902 FKBP12F36V-KRASG12V; KRAS-/- clone, 2D-monolayer (CellTiter-Glo)
Experimental: as §1

[7] = log10[compound] (M) -5.69897, replicate values
[8] = log10[compound] (M) -6.19897, replicate values
[9] = log10[compound] (M) -6.69897, replicate values
[10] = log10[compound] (M) -7.19897, replicate values
[11] = log10[compound] (M) -7.69897, replicate values
[12] = log10[compound] (M) -8.19897, replicate values
[13] = log10[compound] (M) -8.69897, replicate values
[14] = log10[compound] (M) -9.19897, replicate values
[15] = log10[compound] (M) -9.69897, replicate values
[16] = log10[compound] (M) -10.199, replicate values
[17] = log10[compound] (M) -5.30103, single replicates
[18] = log10[compound] (M) -5.80103, single replicates
[19] = log10[compound] (M) -6.30103, single replicates
[20] = log10[compound] (M) -6.80103, single replicates
[21] = log10[compound] (M) -7.30103, single replicates
[22] = log10[compound] (M) -7.80103, single replicates
[23] = log10[compound] (M) -8.30103, single replicates
[24] = log10[compound] (M) -8.80103, single replicates
[25] = log10[compound] (M) -9.30103, single replicates
[26] = log10[compound] (M) -9.80103, single replicates

For `CC[C@H](C(=O)N1CCCC[C@H]1C(=O)O[C@H](CCc1ccc(OC)c(OC)c1)c1ccccc1OCC(=O)NCCCCCCOc1cccc2c1C(=O)N(C1CCC(=O)N(C)C1=O)C2=O)c1cc(OC)c(OC)c(OC)c1` (stereo partly drawn) [dTAG-13-NEG], the DMSO-normalized antiproliferation ([1]; log10[compound] (M) -5.69897) was 96.8823 and 98.3914 and 98.1687 and 89.6654, the DMSO-normalized antiproliferation ([1]; log10[compound] (M) -6.19897) was 105.48 and 122.576 and 96.899 and 128.406 and the DMSO-normalized antiproliferation ([1]; log10[compound] (M) -6.69897) was 114.368 and 120.61 and 116.857 and 110.62. For the same compound, the DMSO-normalized antiproliferation ([1]; log10[compound] (M) -7.19897) was 96.9046 and 91.4307 and 93.53 and 114.106, the DMSO-normalized antiproliferation ([1]; log10[compound] (M) -7.69897) was 103.386 and 104.261 and 89.7267 and 101.721 and the DMSO-normalized antiproliferation ([1]; log10[compound] (M) -8.19897) was 101.449 and 95.4289 and 118.555 and 115.899. For the same compound, the DMSO-normalized antiproliferation ([1]; log10[compound] (M) -8.69897) was 120.176 and 108.237 and 116.378 and 119.908, the DMSO-normalized antiproliferation ([1]; log10[compound] (M) -9.19897) was 94.538 and 95.4846 and 105.848 and 104.818 and the DMSO-normalized antiproliferation ([1]; log10[compound] (M) -9.69897) was 83.4954 and 97.4225 and 109.1 and 101.059. For the same compound, the DMSO-normalized antiproliferation ([1]; log10[compound] (M) -10.199) was 96.7821 and 78.8679 and 98.5696 and 88.8079, the DMSO-normalized antiproliferation [2, 7] was 72.8225 and 72.1303 and 101.197 and 90.2175 and the DMSO-normalized antiproliferation [2, 8] was 131.635 and 91.018 and 75.6842 and 106.809. For the same compound, the DMSO-normalized antiproliferation [2, 9] was 122.78 and 97.8706 and 155.447 and 120.938, the DMSO-normalized antiproliferation [2, 10] was 130.888 and 102.417 and 116.74 and 117.366 and the DMSO-normalized antiproliferation [2, 11] was 130.608 and 108.743 and 109.209 and 155.426. The DMSO-normalized antiproliferation [2, 12] was 126.2 and 112.564 and 135.746 and 163.91, the DMSO-normalized antiproliferation [2, 13] was 114.853 and 118.921 and 108.594 and 114.639 and the DMSO-normalized antiproliferation [2, 14] was 149.935 and 111.753 and 119.231 and 88.5759. The DMSO-normalized antiproliferation [2, 15] was 130.478 and 106.921 and 102.092 and 104.28, the DMSO-normalized antiproliferation [2, 16] was 146.921 and 153.043 and 111.382 and 113.309 and the “DMSO-normalized ratio of Nluc/Fluc signal” value [3, 17] was 67.0666 and 77.8998 and 91.6821 and 102.898. The “DMSO-normalized ratio of Nluc/Fluc signal” value [3, 18] was 78.9348 and 111.471 and 83.3725 and 82.7897, the “DMSO-normalized ratio of Nluc/Fluc signal” value [3, 19] was 92.3022 and 94.9354 and 69.2394 and 97.8278 and the “DMSO-normalized ratio of Nluc/Fluc signal” value [3, 20] was 96.006 and 100.644 and 74.9876 and 76.7216. For the same compound, the “DMSO-normalized ratio of Nluc/Fluc signal” value [3, 21] was 72.8244 and 95.6646 and 99.6579 and 99.4332, the “DMSO-normalized ratio of Nluc/Fluc signal” value [3, 22] was 97.6563 and 103.416 and 111.647 and 107.58 and the “DMSO-normalized ratio of Nluc/Fluc signal” value [3, 23] was 72.1292 and 95.3278 and 119.638 and 97.0458. The “DMSO-normalized ratio of Nluc/Fluc signal” value [3, 24] was 78.9909 and 117.088 and 62.8565 and 76.9455, the “DMSO-normalized ratio of Nluc/Fluc signal” value [3, 25] was 119.218 and 128.013 and 101.879 and 100.194 and the “DMSO-normalized ratio of Nluc/Fluc signal” value [3, 26] was 65.6358 and 99.3457 and 89.3391 and 80.9056. For the same compound, the “DMSO-normalized ratio of Nluc/Fluc signal” value [4, 17] was 107.485 and 132.51 and 146.194 and 142.752, the “DMSO-normalized ratio of Nluc/Fluc signal” value [4, 18] was 129.127 and 105.072 and 162.6 and 136.425 and the “DMSO-normalized ratio of Nluc/Fluc signal” value [4, 19] was 79.0888 and 120.578 and 92.5034 and 88.448. The “DMSO-normalized ratio of Nluc/Fluc signal” value [4, 20] was 88.2422 and 88.8583 and 65.8176 and 62.4888, the “DMSO-normalized ratio of Nluc/Fluc signal” value [4, 21] was 134.755 and 99.5368 and 72.6182 and 68.5345 and the “DMSO-normalized ratio of Nluc/Fluc signal” value [4, 22] was 97.7941 and 97.6227 and 54.6259 and 65.8847. For the same compound, the “DMSO-normalized ratio of Nluc/Fluc signal” value [4, 23] was 87.9478 and 99.3529 and 98.1344 and 118.766, the “DMSO-normalized ratio of Nluc/Fluc signal” value [4, 24] was 97.4127 and 84.7262 and 88.2477 and 92.5526 and the “DMSO-normalized ratio of Nluc/Fluc signal” value [4, 25] was 102.465 and 92.5515 and 101.177 and 79.93. For the same compound, the “DMSO-normalized ratio of Nluc/Fluc signal” value [4, 26] was 77.6015 and 76.7835 and 70.5544 and 62.7116, the DMSO-normalized antiproliferation [5, 7] was 78.2662 and 80.6112 and 107.636 and 101.511 and the DMSO-normalized antiproliferation [5, 8] was 115.881 and 119.912 and 109.909 and 110.138. For the same compound, the DMSO-normalized antiproliferation [5, 9] was 134.032 and 111.738 and 124.289 and 133.898, the DMSO-normalized antiproliferation [5, 10] was 111.46 and 97.6141 and 114.554 and 105.672 and the DMSO-normalized antiproliferation [5, 11] was 122.388 and 133.597 and 106.246 and 144.762. The DMSO-normalized antiproliferation [5, 12] was 120.684 and 101.999 and 116.106 and 132.987, the DMSO-normalized antiproliferation [5, 13] was 123.405 and 123.822 and 121.356 and 113.012 and the DMSO-normalized antiproliferation [5, 14] was 108.263 and 109.792 and 100.309 and 162.971. The DMSO-normalized antiproliferation [5, 15] was 109.842 and 96.251 and 145.82 and 104.761, the DMSO-normalized antiproliferation [5, 16] was 93.2647 and 77.5801 and 110.815 and 107.241 and the DMSO-normalized antiproliferation [6, 7] was 50.9912 and 75.2013 and 73.3197 and 81.1372. For the same compound, the DMSO-normalized antiproliferation [6, 8] was 68.0095 and 98.7671 and 119.504 and 100.111, the DMSO-normalized antiproliferation [6, 9] was 129.938 and 93.0967 and 131.778 and 96.6262 and the DMSO-normalized antiproliferation [6, 10] was 111.6 and 154.459 and 120.786 and 146.95. For the same compound, the DMSO-normalized antiproliferation [6, 11] was 99.1211 and 134.569 and 105.935 and 133.398, the DMSO-normalized antiproliferation [6, 12] was 121.063 and 109.153 and 96.3979 and 125.341 and the DMSO-normalized antiproliferation [6, 13] was 116.243 and 134.344 and 103.587 and 114.006. For the same compound, the DMSO-normalized antiproliferation [6, 14] was 75.2314 and 130.564 and 98.3202 and 135.021, the DMSO-normalized antiproliferation [6, 15] was 119.764 and 98.922 and 106.747 and 99.1636 and the DMSO-normalized antiproliferation [6, 16] was 97.9582 and 111.563 and 110.426 and 109.944.
